Measurements as given in ChEMBL document CHEMBL3286108, “Novel arylsulfonamide derivatives with 5-HT₆/5-HT₇ receptor antagonism targeting behavioral and psychological symptoms of dementia” (J Med Chem, 2014).
The source made the active and inactive calls. The rule behind the calls is not given here.

What was measured:
[1] = biological target: hERG (KCNH2) potassium channel (Homo sapiens, UniProt Q12809); experiment: in vitro; settings: CHO cells expressing human cloned ERG
[2] = biological target: T1, 5-hydroxytryptamine receptor 7 (Homo sapiens, UniProt P34969); experiment: Antagonist activity at human 5-HT7 receptor expressed in CHO-K1 cells assessed as inhibition of serotonin-induced cAMP accumulation after 60 mins by TR-FRET immunoassay; assay type: functional, cell-based
[3] = biological target: T2, D(2) dopamine receptor (Homo sapiens, UniProt P14416); experiment: biochemical
[4] = biological target: T2, D(2) dopamine receptor; experiment: Agonist activity at human recombinant D2 receptor expressed in CHO-K1 cells by luminescence analysis; assay type: cell-based
[5] = biological target: T3, Muscarinic acetylcholine receptor M1 (Homo sapiens) (UniProt P11229); experiment: Displacement of [3H]pirenzepine from human recombinant M1 receptor expressed in CHO cells at 1 uM; assay type: cell-based
T3 sequence (whole entry): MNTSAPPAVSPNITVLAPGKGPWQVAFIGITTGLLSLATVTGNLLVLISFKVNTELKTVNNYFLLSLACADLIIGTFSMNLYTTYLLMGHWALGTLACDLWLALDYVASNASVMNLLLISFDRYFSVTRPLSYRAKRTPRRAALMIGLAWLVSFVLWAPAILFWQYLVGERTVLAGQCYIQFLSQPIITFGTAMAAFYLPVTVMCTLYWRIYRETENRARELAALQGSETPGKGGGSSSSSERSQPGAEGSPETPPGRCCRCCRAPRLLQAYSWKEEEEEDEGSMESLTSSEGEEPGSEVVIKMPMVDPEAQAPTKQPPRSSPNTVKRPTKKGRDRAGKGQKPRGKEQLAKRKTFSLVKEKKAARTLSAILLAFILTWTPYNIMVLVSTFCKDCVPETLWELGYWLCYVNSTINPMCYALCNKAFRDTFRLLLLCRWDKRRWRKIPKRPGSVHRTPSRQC

[6] = biological target: T4, 5-hydroxytryptamine receptor 2A (Homo sapiens, UniProt P28223); experiment: Antagonist activity at human recombinant 5-HT2A receptor expressed in CHO-K1 cells assessed as inhibition of alpha-methyl serotonin-induced response treated 15 to 30 mins before agonist challenge by luminescence analysis; assay type: cell-based
[7] = biological target: T5, 5-hydroxytryptamine receptor 6 (Homo sapiens, UniProt P50406); experiment: Agonist activity at human recombinant 5-HT6 receptor expressed in CHO-K1 cells by luminescence analysis; assay type: cell-based
[8] = biological target: T5, 5-hydroxytryptamine receptor 6; experiment: Antagonist activity at human recombinant 5-HT6 receptor expressed in CHO-K1 cells assessed as inhibition of serotonin-induced response treated 15 to 30 mins before agonist challenge by luminescence analysis; assay type: cell-based
[9] = biological target: T4, 5-hydroxytryptamine receptor 2A; experiment: Agonist activity at human recombinant 5-HT2A receptor expressed in CHO-K1 cells by luminescence analysis; assay type: cell-based
[10] = biological target: T1, 5-hydroxytryptamine receptor 7; experiment: Agonist activity at human 5-HT7 receptor expressed in CHO-K1 cells assessed as cAMP accumulation after 60 mins by TR-FRET immunoassay; assay type: functional, cell-based
[11] = biological target: T1, 5-hydroxytryptamine receptor 7; experiment: biochemical; assay type: cell-based, CHO-K1
[12] = biological target: T5, 5-hydroxytryptamine receptor 6; experiment: biochemical
[13] = biological target: T4, 5-hydroxytryptamine receptor 2A; experiment: biochemical; assay type: cell-based, CHO-K1

T1 sequence (P34969 whole entry): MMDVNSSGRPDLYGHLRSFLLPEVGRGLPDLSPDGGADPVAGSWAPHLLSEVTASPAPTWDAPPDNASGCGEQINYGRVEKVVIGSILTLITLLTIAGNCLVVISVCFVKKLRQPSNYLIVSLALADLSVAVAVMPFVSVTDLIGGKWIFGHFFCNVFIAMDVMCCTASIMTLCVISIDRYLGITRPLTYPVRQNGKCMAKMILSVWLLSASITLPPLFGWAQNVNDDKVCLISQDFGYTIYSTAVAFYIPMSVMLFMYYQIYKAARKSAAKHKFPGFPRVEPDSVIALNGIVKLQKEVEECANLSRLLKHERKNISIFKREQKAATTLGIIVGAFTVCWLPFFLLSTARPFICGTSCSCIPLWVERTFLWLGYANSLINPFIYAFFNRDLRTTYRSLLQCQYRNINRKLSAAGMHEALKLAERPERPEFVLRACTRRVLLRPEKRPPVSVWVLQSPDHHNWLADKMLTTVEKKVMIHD
T4 sequence (P28223 whole entry): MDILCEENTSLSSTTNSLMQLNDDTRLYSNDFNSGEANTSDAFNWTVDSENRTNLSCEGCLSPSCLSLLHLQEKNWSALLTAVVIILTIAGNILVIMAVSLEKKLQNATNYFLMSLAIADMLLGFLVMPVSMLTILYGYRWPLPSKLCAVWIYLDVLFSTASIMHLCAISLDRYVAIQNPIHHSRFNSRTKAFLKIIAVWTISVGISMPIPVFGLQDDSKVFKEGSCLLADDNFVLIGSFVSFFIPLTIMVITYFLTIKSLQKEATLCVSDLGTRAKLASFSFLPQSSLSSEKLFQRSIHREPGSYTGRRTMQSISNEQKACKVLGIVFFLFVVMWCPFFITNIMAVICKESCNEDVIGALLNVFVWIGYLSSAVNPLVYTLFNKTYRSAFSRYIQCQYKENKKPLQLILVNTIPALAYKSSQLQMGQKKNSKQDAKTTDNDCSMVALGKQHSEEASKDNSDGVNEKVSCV
Sequence of hERG (KCNH2) potassium channel (Q12809 whole entry): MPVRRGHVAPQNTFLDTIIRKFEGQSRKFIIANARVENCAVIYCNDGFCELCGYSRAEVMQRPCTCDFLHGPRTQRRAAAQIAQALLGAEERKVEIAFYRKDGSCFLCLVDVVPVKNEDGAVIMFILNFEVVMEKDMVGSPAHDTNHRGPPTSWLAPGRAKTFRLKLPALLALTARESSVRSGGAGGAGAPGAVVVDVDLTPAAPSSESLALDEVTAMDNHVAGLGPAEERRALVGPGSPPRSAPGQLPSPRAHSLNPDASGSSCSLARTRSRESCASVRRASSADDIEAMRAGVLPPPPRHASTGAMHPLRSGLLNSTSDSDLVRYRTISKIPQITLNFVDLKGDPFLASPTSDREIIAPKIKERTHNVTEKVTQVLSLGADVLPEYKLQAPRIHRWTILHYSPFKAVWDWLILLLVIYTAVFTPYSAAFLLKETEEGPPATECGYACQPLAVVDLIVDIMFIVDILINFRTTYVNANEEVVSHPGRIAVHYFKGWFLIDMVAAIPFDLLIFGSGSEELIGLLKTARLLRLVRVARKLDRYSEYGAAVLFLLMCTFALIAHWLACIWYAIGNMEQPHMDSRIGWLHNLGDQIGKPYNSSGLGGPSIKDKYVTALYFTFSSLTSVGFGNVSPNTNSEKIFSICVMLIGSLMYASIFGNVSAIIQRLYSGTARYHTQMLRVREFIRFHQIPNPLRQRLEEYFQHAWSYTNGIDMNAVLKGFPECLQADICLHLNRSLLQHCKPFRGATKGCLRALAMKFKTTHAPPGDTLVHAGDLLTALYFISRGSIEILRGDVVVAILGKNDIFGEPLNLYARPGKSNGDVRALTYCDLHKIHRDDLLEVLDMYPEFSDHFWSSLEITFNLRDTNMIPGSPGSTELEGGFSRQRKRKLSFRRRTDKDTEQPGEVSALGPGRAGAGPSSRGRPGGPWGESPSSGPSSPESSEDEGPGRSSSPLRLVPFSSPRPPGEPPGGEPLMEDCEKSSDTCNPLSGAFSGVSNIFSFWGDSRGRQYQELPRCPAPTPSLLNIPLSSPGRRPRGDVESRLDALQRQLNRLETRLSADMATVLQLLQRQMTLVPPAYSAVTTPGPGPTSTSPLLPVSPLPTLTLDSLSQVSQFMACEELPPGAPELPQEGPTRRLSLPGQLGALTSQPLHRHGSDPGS
T5 sequence (P50406 whole entry): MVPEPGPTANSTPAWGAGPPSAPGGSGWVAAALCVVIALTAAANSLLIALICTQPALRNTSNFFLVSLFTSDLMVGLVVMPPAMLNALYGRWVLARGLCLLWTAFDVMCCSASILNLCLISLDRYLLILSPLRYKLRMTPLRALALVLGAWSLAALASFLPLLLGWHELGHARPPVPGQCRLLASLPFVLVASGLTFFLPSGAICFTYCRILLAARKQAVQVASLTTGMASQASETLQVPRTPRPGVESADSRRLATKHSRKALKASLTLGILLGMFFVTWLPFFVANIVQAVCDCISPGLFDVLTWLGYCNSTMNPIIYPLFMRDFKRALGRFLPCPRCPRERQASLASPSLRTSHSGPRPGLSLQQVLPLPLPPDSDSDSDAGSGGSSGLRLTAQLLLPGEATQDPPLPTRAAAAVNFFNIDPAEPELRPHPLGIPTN
T2 sequence (P14416 whole entry): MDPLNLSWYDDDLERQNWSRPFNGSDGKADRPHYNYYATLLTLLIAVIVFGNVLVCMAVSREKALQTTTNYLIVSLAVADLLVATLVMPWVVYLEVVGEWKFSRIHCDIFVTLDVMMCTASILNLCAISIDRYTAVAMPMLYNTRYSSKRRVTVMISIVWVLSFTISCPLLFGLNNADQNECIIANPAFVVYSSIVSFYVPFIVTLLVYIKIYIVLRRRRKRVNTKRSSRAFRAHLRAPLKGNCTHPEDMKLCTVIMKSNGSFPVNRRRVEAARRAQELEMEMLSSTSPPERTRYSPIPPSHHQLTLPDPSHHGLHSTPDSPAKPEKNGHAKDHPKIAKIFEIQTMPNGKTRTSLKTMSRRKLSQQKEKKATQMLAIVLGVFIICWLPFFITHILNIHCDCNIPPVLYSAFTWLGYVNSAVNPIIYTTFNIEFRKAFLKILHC

Compound | inhibition at 1 µM [1] | Kb [2] | Ki [3] | Activity [4] | inhibition [5] | Kb [6] | Activity [7] | Kb [8] | Activity [9] | Activity [10] | Ki [11] | Ki [12] | Ki [13]
Cc1c(S(=O)(=O)NCCCCN2CCC(c3noc4cc(F)ccc34)CC2)sc2ccc(Cl)cc12 | 0% | 5.6 nM | 1.5 nM | inactive | 19% | 9.5 nM | inactive | 22 nM | inactive | inactive | 0.7 nM | 1.8 nM | 1 nM
Cc1cccc(S(=O)(=O)NCCCN2CCC(c3noc4cc(F)ccc34)CC2)c1 | 52% | 0.5 nM | 16 nM | inactive | 1% | 15 nM | inactive | 2.5 nM | inactive | inactive | 0.6 nM | 13 nM | 3.7 nM
O=S(=O)(NCCCCN1CCN(c2nsc3ccccc23)CC1)c1ccc2ccccc2c1 | 14% | 44 nM | 0.9 nM | inactive | -5% | 110 nM | inactive | 7.6 nM | inactive | inactive | 1.8 nM | 5 nM | 1.5 nM
O=S(=O)(NCCCN1CCC(c2noc3cc(F)ccc23)CC1)c1ccc(Cl)c(Cl)c1 | 69% | 2.1 nM | 14 nM | inactive | -3% | 23 nM | inactive | 12 nM | inactive | inactive | 1.2 nM | 7.1 nM | 2.2 nM
O=S(=O)(NCCCCN1CCN(c2noc3ccccc23)CC1)c1ccc2ccccc2c1 | 0% | 9.2 nM | 15 nM | inactive | -3% | 11 nM | inactive | 11 nM | inactive | inactive | 0.8 nM | 6.2 nM | 0.7 nM
O=S(=O)(NCCCN1CCC(c2noc3cc(F)ccc23)CC1)c1ccc(F)c(Cl)c1 | 32% | 0.8 nM | 3.7 nM | inactive | -8% | 7 nM | inactive | 7.4 nM | inactive | inactive | 0.9 nM | 1.6 nM | 1.5 nM
O=S(=O)(NCCCCN1CCC(c2noc3cc(F)ccc23)CC1)c1ccc2cc(Cl)ccc2c1 |  | 1 nM | 1 nM | inactive |  | 6.5 nM | inactive | 8.3 nM | inactive | inactive | 3.2 nM | 2.4 nM | 0.6 nM
O=S(=O)(NCCCCN1CCC(c2noc3cc(F)ccc23)CC1)c1cc2ccc(Cl)cc2s1 | 18% | 2.8 nM | 1.2 nM | inactive | 23% | 55 nM | inactive | 21 nM | inactive | inactive | 1.3 nM | 3.3 nM | 0.8 nM
O=S(=O)(NCCCCN1CCC(c2noc3cc(F)ccc23)CC1)c1ccc2ccccc2c1 | 30% | 8.8 nM | 1.1 nM | inactive | 0% | 14 nM | inactive | 3.8 nM | inactive | inactive | 1.4 nM | 2.4 nM | 1.7 nM
